As usually defined, the IC50 is the concentration at which inhibition is half-maximal.

SMILES strings stand for the structures.

These results are taken from publication PMC7848139, “Novel Hybrid CHC from β-carboline and N-Hydroxyacrylamide Overcomes Drug-Resistant Hepatocellular Carcinoma by Promoting Apoptosis, DNA Damage, and Cell Cycle Arrest” (Frontiers in Pharmacology, 2021).

The test system of one data set is Huh7. Description: MTT antiproliferative assay, Huh7. In kind it is cell-based. As to conditions: Homo sapiens, Huh-7, 72 h, mean ± SD of three experiments, read-out: In vitro antiproliferative activity (IC50) Huh7. As to the method:
(§1) Briefly, appropriate cells (1 × 10^4 cells/mL) were placed into 96-well plates in 100 μL of DMEM medium overnight. Then adding 100 μL of evaluated compounds into individual well for 72 h while 0.1% DMSO aqueous solution was treated as the negative control. After incubation with 30 μl MTT (5 mg/mL) for 4 h in all well, and ELISA plate reader measured absorbance of each well at 570 nm. Then calculating cytotoxicity effect of evaluated compounds through the formula: Cell inhibitory percentage (%) = (1−OD of treatment group/OD of control) × 100%.
For orientation: Tetrazolium dyes change colour on reduction, which living cells bring about.

The subject of a further data set is SMMC-7721. Put plainly: MTT antiproliferative assay, SMMC-7721. Format: cell-based. As to conditions: Homo sapiens, 72 h, mean ± SD of three experiments, read-out: In vitro antiproliferative activity (IC50) SMMC-7721. Here is the method: as §1
The next data set has as its system HCT116. Put plainly: MTT antiproliferative assay, HCT116. Format: cell-based. As to conditions: Homo sapiens, HCT-116, 72 h, mean ± SD of three experiments, read-out: In vitro antiproliferative activity (IC50) HCT116. As to the method:
as §1

The next data set concerns Bel7402/5-FU xenografts. Description: In vivo tumor growth inhibition, Bel7402/5-FU xenograft. As to conditions: 70 μmol/kg, intraperitoneal daily, 21 days, n = 6; saline group 1.47 ± 0.21 g. Details: species or system BALB/c nude mice. Here is the method: All animal experimental protocols were approved by the Animal Research and Care Committee of Nantong University. Female BALB/c nude mice at 5∼6 week-old were subcutaneously implanted with 1×10^6 Bel7402/5-FU cells. […] The body mass and tumor size of nude mice were surveyed every three days during the 21 days study. Tumor size (mm^3) of nude mice was determined using the formula: tumor size = ½ (Length×Width^2). Finally, these tumor-bearing mice were sacrificed, and their tumors were removed and weighed at the end of the 21 days.
Data (means ± SD) were from tumor volumes or weight of each group of mice (n = 6 per group). *p < 0.01 vs. control group.

The next data set has as its system CT-DNA. Description: UV-visible spectroscopy titrations with CT DNA. Format: binding, calf. As to conditions: 20 μM compound, equal increments of CT-DNA, 25°C. As to the method: The ultraviolet spectrophotometer (UV2500, Shimadzu, Tokyo, Japan) recorded UV–visible spectroscopy under titrations at 25°C. Tris buffer (5 mM) was used to prepare Stock solutions of CT DNA (20 μM, calf thymus DNA) comprising ideal structure of double stranded DNA. Dissolving synthesized derivative in 1:1000 DMSO/Milli Q water to prepare stock solutions of them (20 μM). UV–visible absorption titrations were carried out with addition of 100 μl CT DNA solution to 4 ml solution of tested compound in quartz cuvette each time interval. Until the absorption band of complex containing synthesized derivative and CT DNA kept at a stable wavelength after adding CT DNA successfully for five times, titrations were finished. Finally, spectrophotometer noted the absorption spectra (250–500 nm).
FIGURE 7 UV-visible absorption spectra of CHC after adding equal amounts of CT DNA. Arrows indicate changes in absorbance with increasing concentrations of DNA [CHC] = 20 μM.

The next data set relates to Bel7402/5-FU cells. Description: Cell apoptosis analysis by flow cytometry. Format: cell-based, human. As to conditions: 5.0 μM, 72 h. Here is the method: Briefly, Bel7402/5-FU cells were cultured in DMEM at 37°C with 5% CO2 for 12 h. […] Then Bel7402/5-FU cells were collected and using APC-Annexin V and 7-AAD to stain these cells under the condition of 37°C for 15 min. Flow cytometry analysis (Calibur, BD, United States) decide the percentage of apoptotic cells according to APC signal (FL4) (excitation wavelength at 633 nm; emission wavelength at 660 nm) and 7-AAD staining signal (FL3) (excitation wavelength at 488 nm; emission wavelength at 647 nm). WinList 3D (7.1) analyzed the data and Excel 2016 plotted the histogram.
FIGURE 5 CHC causes apoptosis of Bel7402/5-FU cells. […] The data (mean ± SD, percentage of apoptotic cells) represent the average of three separate experiments. *p < 0.01 vs. control.

As for `COc1ccc2c(c1)[nH]c1c(C)nccc12` [Harmine, harmine, reference compound], the values for the IC50 in the data set with Huh7, in the data set with SMMC-7721 and with HCT116 were 41.9 ± 5.06 µM, 47.6 ± 5.12 µM and 43.8 ± 3.85 µM, respectively.

As to `O=C(CCCCCCC(=O)Nc1ccccc1)NO` [SAHA, Vorinostat, reference compound], in the data set with Bel7402/5-FU xenografts, the “tumor mass at end of treatment” value turned out to be 0.76 ± 0.11 g. In addition, the “change of UV-visible absorption upon adding CT-DNA” value with CT-DNA is reported as “slightly increased”. Further, the “rate of Annexin V+ Bel7402/5-FU cellular apoptosis” value in the data set with Bel7402/5-FU cells stood at 30.8%.
